Where a chain is given by its changes, count along the chain named. “And” between values parts separate entries of the source, which are not always exact repeats. Identical values can stand only once.
What was measured:
mutant α-GAL [1] = target: T1, mutant α-GAL (Homo sapiens, UniProt P06280, L300P); experiment: T cell-based α-GAL enhancement assay, T cells from Fabry patients cultured with DGJ; design: key to Enhancement Group / Enhancement ratio: E: enhanceable;; I: enhanceable (intermediate);; NE: not enhanceable;
T1 construct: endogenous in cells; host or cells: T cell cultures established from blood of Fabry patients
T1 sequence (P06280 32-429 L300P): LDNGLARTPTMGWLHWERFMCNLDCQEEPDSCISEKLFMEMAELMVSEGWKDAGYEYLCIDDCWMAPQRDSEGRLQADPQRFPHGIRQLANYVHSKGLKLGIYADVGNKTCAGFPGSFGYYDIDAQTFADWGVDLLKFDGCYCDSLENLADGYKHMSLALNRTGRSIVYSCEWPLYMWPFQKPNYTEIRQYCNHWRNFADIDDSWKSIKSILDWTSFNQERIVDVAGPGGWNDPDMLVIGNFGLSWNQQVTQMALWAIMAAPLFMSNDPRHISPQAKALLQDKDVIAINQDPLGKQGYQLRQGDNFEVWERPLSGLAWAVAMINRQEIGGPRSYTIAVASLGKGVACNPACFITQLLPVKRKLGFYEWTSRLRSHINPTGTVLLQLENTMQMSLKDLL
How it was run: (§1)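 T cells expanded from patient or normal blood white cells in RPMI 1640 with serum, about 25 ng/ml IL-2 and PHA at 37° C, 5% CO2. Cultures held between 5×10^5 and 1.5×10^6 cells/ml.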

mutant α-GAL [2] = target: T2, mutant α-GAL (Homo sapiens, UniProt P06280, R301Q); experiment: as above; design: key to Enhancement Group / Enhancement ratio: E: enhanceable;; I: enhanceable (intermediate);; NE: not enhanceable;
T2 construct: was put into a fresh tube and used as the source of α-GAL; endogenous in cells; host or cells: T cell cultures established from blood of Fabry patients
T2 sequence (P06280 32-429 R301Q): T1 sequence (P06280 32-429 L300P) with P269L, R270Q
How it was run: as §1

OC[C@H]1NC[C@H](O)[C@@H](O)[C@H]1O [DGJ, 1-deoxygalactonojirimycin]
Enhancement Group (mutant α-GAL [1]; Fabry patient T cells, mutation L300P): E | Activity (% Normal) (+DGJ) (mutant α-GAL [1]; Fabry patient T cells, mutation L300P, 20 μM DGJ): 72 % Normal | Enhancement ratio (mutant α-GAL [1]; Fabry patient T cells, mutation L300P, +DGJ vs −DGJ): 36.1 | increase of activity in the presence of DGJ (mutant α-GAL [1]; L300P mutation, T cells): 37 fold | Enhancement Group (mutant α-GAL [2]; Fabry patient T cells, mutation R301Q): E | Enhancement ratio (mutant α-GAL [2]; Fabry patient T cells, mutation R301Q, +DGJ vs −DGJ): 12.3 and 9.1 and 12.1 | increase of activity in the presence of DGJ (mutant α-GAL [2]; R301Q mutation, T cells): 12 fold
